The text below walks through data of the supplement of paper PMC11208160.
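Note: IS621 bridge recombinase in Escherichia coli cells against a fixed T5 target plasmid.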

The nature of this data set: recombinant UMI read abundance after kanamycin selection (control-corrected) (log10(CPM+1)); higher = more efficient recombination; extreme values may be limits of the assay; sequences stand for … in AGTGCAGAGAAAATCGGCCAGTTTTCTCTGCCTGCAGTCCGCATGCCGTGGGACCCCTTGGGTTCTAACCTGTTGCCTAGATTTATGCAGCGGACTGCCTTTCTCCCAAAGTGATAAACCGG…AGGTTGGTTTCACT; site = the 11-nt donor. How it is done:
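Pooled E. coli donor-specificity screen for the IS621 bridge recombinase. Each library member carries a reprogrammed 11-nt donor and a full-length LE bridge RNA expressed in cis from the natural promoter, with a paired donor-binding loop (8-nt LDG + 4-nt RDG) and a target-binding loop fixed to T5. It is co-electroporated with a T5 target plasmid; recombinase is induced with 0.07 mM IPTG and recombinants are selected on kanamycin. UMIs are counted as CPM, averaged over two biological replicates and corrected by the unselected control. Molecule = full bridge RNA written as DNA, built from the T5 scaffold: LDG = donor specificity nt 1-8, RDG = reverse complement of nt 8-11.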
In the case of “ACATCGACATGGACCGGTTTTCCCGGTAATCCGTATTTGTG (site ACATCCACTCA)”, the “recombinant UMI read abundance (log10)” value was determined as 0.0171.

With “ACATCGACATGGACCGGTTTTCCCGGTAATCCGTATTTGTG (site ACATCGACTCA)”, the “recombinant UMI read abundance (log10)” value worked out at 0.245.

With “ACATCGACATGGACCGGTTTTCCCGGTAATCCGTATTTGTG (site ACATCTACTCA)”, the “recombinant UMI read abundance (log10)” value worked out at 0.00913.

In the case of “ACATCTACATGGACCGGTTTTCCCGGTAATCCGTATTTGAG (site ACATCTACTCA)”, the “recombinant UMI read abundance (log10)” value amounted to 0.0306.

With “ACATCTACATGGACCGGTTTTCCCGGTAATCCGTATTTGAG (site ACATCTACTCC)”, the “recombinant UMI read abundance (log10)” value is 0.184.

For “ACATCTACATGGACCGGTTTTCCCGGTAATCCGTATTTGAG (site ACATCTACTCG)”, the “recombinant UMI read abundance (log10)” value came out at 0.0217.

“ACATCTACATGGACCGGTTTTCCCGGTAATCCGTATTTGAG (site ACATCTACTCT)”: the “recombinant UMI read abundance (log10)” value is 1.67.

Turning to “ACATCTACATGGACCGGTTTTCCCGGTAATCCGTATTTGTA (site ACATCTACTAA)”, the “recombinant UMI read abundance (log10)” value was 0.0109.

With “ACATCTACATGGACCGGTTTTCCCGGTAATCCGTATTTGTA (site ACATCTACTCA)”, the “recombinant UMI read abundance (log10)” value stood at 0.0123.

Regarding “ACATCTACATGGACCGGTTTTCCCGGTAATCCGTATTTGTA (site ACATCTACTGA)”, the “recombinant UMI read abundance (log10)” value is 0.

“ACATCTACATGGACCGGTTTTCCCGGTAATCCGTATTTGTA (site ACATCTACTTA)”: the “recombinant UMI read abundance (log10)” value was found to be 0.989.

For “ACATCTCCATGGACCGGTTTTCCCGGTAATCCGTATTTGTG (site ACATCTACTCA)”, the “recombinant UMI read abundance (log10)” value amounted to 0.0166.

Regarding “ACATCTCCATGGACCGGTTTTCCCGGTAATCCGTATTTGTG (site ACATCTCCTCA)”, the “recombinant UMI read abundance (log10)” value was 0.00967.

Consider “ACATCTCCATGGACCGGTTTTCCCGGTAATCCGTATTTGTG (site ACATCTGCTCA)”, for which the “recombinant UMI read abundance (log10)” value was 0.0416.

On to “ACATCTCCATGGACCGGTTTTCCCGGTAATCCGTATTTGTG (site ACATCTTCTCA)”, for which the “recombinant UMI read abundance (log10)” value was found to be 0.00664.

Regarding “ACATCTTCATGGACCGGTTTTCCCGGTAATCCGTATTTGTG (site ACATCTACTCA)”, the “recombinant UMI read abundance (log10)” value worked out at 0.0158.

Consider “ACATCTTCATGGACCGGTTTTCCCGGTAATCCGTATTTGTG (site ACATCTCCTCA)”, for which the “recombinant UMI read abundance (log10)” value came out at 0.0151.

For the sequence “ACATCTTCATGGACCGGTTTTCCCGGTAATCCGTATTTGTG (site ACATCTGCTCA)”, the “recombinant UMI read abundance (log10)” value was 0.

“ACATCTTCATGGACCGGTTTTCCCGGTAATCCGTATTTGTG (site ACATCTTCTCA)”: the “recombinant UMI read abundance (log10)” value came out at 0.969.

“ACATGAACATGGACCGGTTTTCCCGGTAATCCGTATTTGAC (site ACATGAACTGT)”: the “recombinant UMI read abundance (log10)” value is 2.71.

As for “ACATGATCATGGACCGGTTTTCCCGGTAATCCGTATTTGCA (site ACAGTATCTTG)”, the “recombinant UMI read abundance (log10)” value amounted to 1.14.

For “ACATGATCATGGACCGGTTTTCCCGGTAATCCGTATTTGCA (site ACATGATCTTG)”, the “recombinant UMI read abundance (log10)” value came to 2.74.

“ACATGCGCATGGACCGGTTTTCCCGGTAATCCGTATTTGGT (site ACATGCGCTAC)”: the “recombinant UMI read abundance (log10)” value worked out at 1.02.

In the case of “ACATTACCATGGACCGGTTTTCCCGGTAATCCGTATTTGGA (site ACATTACCTTC)”, the “recombinant UMI read abundance (log10)” value is 0.

As to “ACATTATCATGGACCGGTTTTCCCGGTAATCCGTATTTGAA (site ACAGTATCTTG)”, the “recombinant UMI read abundance (log10)” value was found to be 0.

Regarding “ACATTATCATGGACCGGTTTTCCCGGTAATCCGTATTTGAA (site ACATTATCTTT)”, the “recombinant UMI read abundance (log10)” value amounted to 2.38.

Take “ACATTGCCATGGACCGGTTTTCCCGGTAATCCGTATTTGGG (site ACATTGCCTCC)”: the “recombinant UMI read abundance (log10)” value amounted to 0.0159.

With “ACATTGGCATGGACCGGTTTTCCCGGTAATCCGTATTTGTT (site ACATTGGCTAA)”, the “recombinant UMI read abundance (log10)” value turned out to be 1.53.

For “ACCAATTCATGGACCGGTTTTCCCGGTAATCCGTATTTGCC (site ACCAATTCTGG)”, the “recombinant UMI read abundance (log10)” value stood at 2.25.

Take “ACCAATTCATGGACCGGTTTTCCCGGTAATCCGTATTTGCC (site CCCAATTCTGG)”: the “recombinant UMI read abundance (log10)” value was 1.91.

Regarding “ACCAATTCATGGACCGGTTTTCCCGGTAATCCGTATTTGCC (site GCCAATTCTGG)”, the “recombinant UMI read abundance (log10)” value was 0.507.

On to “ACCAATTCATGGACCGGTTTTCCCGGTAATCCGTATTTGCC (site TCCAATTCTGG)”, for which the “recombinant UMI read abundance (log10)” value is 0.66.

For “ACCAGAACATGGACCGGTTTTCCCGGTAATCCGTATTTGAG (site ACAAGAACTCT)”, the “recombinant UMI read abundance (log10)” value was found to be 0.

Take “ACCAGAACATGGACCGGTTTTCCCGGTAATCCGTATTTGAG (site ACCAGAACTCT)”: the “recombinant UMI read abundance (log10)” value was 2.19.

Turning to “ACCAGAACATGGACCGGTTTTCCCGGTAATCCGTATTTGAG (site ACGAGAACTCT)”, the “recombinant UMI read abundance (log10)” value was 0.

With “ACCAGAACATGGACCGGTTTTCCCGGTAATCCGTATTTGAG (site ACTAGAACTCT)”, the “recombinant UMI read abundance (log10)” value was determined as 0.155.

Regarding “ACCAGCTCATGGACCGGTTTTCCCGGTAATCCGTATTTGTC (site ACCAGCTCTGA)”, the “recombinant UMI read abundance (log10)” value was determined as 2.47.

“ACCATATCATGGACCGGTTTTCCCGGTAATCCGTATTTGTC (site ACCATATCTGA)”: the “recombinant UMI read abundance (log10)” value came to 2.03.

In the case of “ACCATATCATGGACCGGTTTTCCCGGTAATCCGTATTTGTC (site CCCATATCTGA)”, the “recombinant UMI read abundance (log10)” value came out at 0.

“ACCATATCATGGACCGGTTTTCCCGGTAATCCGTATTTGTC (site GCCATATCTGA)”: the “recombinant UMI read abundance (log10)” value was determined as 0.

For the sequence “ACCATATCATGGACCGGTTTTCCCGGTAATCCGTATTTGTC (site TCCATATCTGA)”, the “recombinant UMI read abundance (log10)” value was determined as 0.

Turning to “ACCCAATCATGGACCGGTTTTCCCGGTAATCCGTATTTGGA (site ACCCAATCTTC)”, the “recombinant UMI read abundance (log10)” value came to 2.04.

As for “ACCCACACATGGACCGGTTTTCCCGGTAATCCGTATTTGTA (site ACCCACACTTA)”, the “recombinant UMI read abundance (log10)” value came to 1.92.

“ACCCACACATGGACCGGTTTTCCCGGTAATCCGTATTTGTA (site CCCCACACTTA)”: the “recombinant UMI read abundance (log10)” value was determined as 0.963.

“ACCCACACATGGACCGGTTTTCCCGGTAATCCGTATTTGTA (site GCCCACACTTA)”: the “recombinant UMI read abundance (log10)” value stood at 0.0193.

In the case of “ACCCACACATGGACCGGTTTTCCCGGTAATCCGTATTTGTA (site TCCCACACTTA)”, the “recombinant UMI read abundance (log10)” value is 0.408.

As to “ACCCATTCATGGACCGGTTTTCCCGGTAATCCGTATTTGGA (site ACCCATTCTTC)”, the “recombinant UMI read abundance (log10)” value worked out at 1.53.

Turning to “ACCCCAACATGGACCGGTTTTCCCGGTAATCCGTATTTGGT (site ACCCCAACTAC)”, the “recombinant UMI read abundance (log10)” value amounted to 0.756.

For the sequence “ACCCCATCATGGACCGGTTTTCCCGGTAATCCGTATTTGAT (site ACCCCATCTAT)”, the “recombinant UMI read abundance (log10)” value stood at 1.23.

As to “ACCCCGACATGGACCGGTTTTCCCGGTAATCCGTATTTGTG (site ACCCCGACTCA)”, the “recombinant UMI read abundance (log10)” value was 0.965.

“ACCCCTACATGGACCGGTTTTCCCGGTAATCCGTATTTGAA (site ACCCCTACTTT)”: the “recombinant UMI read abundance (log10)” value stood at 1.06.

For “ACCCGCTCATGGACCGGTTTTCCCGGTAATCCGTATTTGCA (site ACCCGCTCTTG)”, the “recombinant UMI read abundance (log10)” value was 2.9.

As for “ACCCTCACATGGACCGGTTTTCCCGGTAATCCGTATTTGTA (site ACCCTCACTTA)”, the “recombinant UMI read abundance (log10)” value worked out at 0.59.

Consider “ACCCTTACATGGACCGGTTTTCCCGGTAATCCGTATTTGAG (site ACCCTTACTCT)”, for which the “recombinant UMI read abundance (log10)” value worked out at 1.66.

Turning to “ACCCTTTCATGGACCGGTTTTCCCGGTAATCCGTATTTGAC (site AACCTTTCTGT)”, the “recombinant UMI read abundance (log10)” value was found to be 0.

In the case of “ACCCTTTCATGGACCGGTTTTCCCGGTAATCCGTATTTGAC (site ACCCTTTCTGT)”, the “recombinant UMI read abundance (log10)” value was 0.

In the case of “ACCCTTTCATGGACCGGTTTTCCCGGTAATCCGTATTTGAC (site AGCCTTTCTGT)”, the “recombinant UMI read abundance (log10)” value turned out to be 0.

Consider “ACCCTTTCATGGACCGGTTTTCCCGGTAATCCGTATTTGAC (site ATCCTTTCTGT)”, for which the “recombinant UMI read abundance (log10)” value stood at 0.

For the sequence “ACCGAGACATGGACCGGTTTTCCCGGTAATCCGTATTTGGG (site ACCAAGACTCC)”, the “recombinant UMI read abundance (log10)” value was 0.109.

As for “ACCGAGACATGGACCGGTTTTCCCGGTAATCCGTATTTGGG (site ACCCAGACTCC)”, the “recombinant UMI read abundance (log10)” value amounted to 0.0111.

For “ACCGAGACATGGACCGGTTTTCCCGGTAATCCGTATTTGGG (site ACCGAGACTCC)”, the “recombinant UMI read abundance (log10)” value was 0.621.

Regarding “ACCGAGACATGGACCGGTTTTCCCGGTAATCCGTATTTGGG (site ACCTAGACTCC)”, the “recombinant UMI read abundance (log10)” value was 0.

Turning to “ACCGAGCCATGGACCGGTTTTCCCGGTAATCCGTATTTGAT (site ACCGAGCCTAT)”, the “recombinant UMI read abundance (log10)” value was 1.13.

Regarding “ACCGATACATGGACCGGTTTTCCCGGTAATCCGTATTTGAA (site ACCGATACTTT)”, the “recombinant UMI read abundance (log10)” value was determined as 1.6.

Regarding “ACCGCTACATGGACCGGTTTTCCCGGTAATCCGTATTTGCC (site ACCGCTACTGG)”, the “recombinant UMI read abundance (log10)” value turned out to be 1.75.
